In the NIST ThermoML archive (doi:10.1016/j.jct.2004.04.010) one finds mass density data, which are given here for four compounds.

Molecules are shown by their SMILES. Numbers after ± are expanded uncertainties.

The data set in a line: mn = molality of the nth substance listed, in mol/kg. The settings on record: 298.15 K, 101.3 kPa, Liquid.

For `O=C[C@H](O)[C@@H](O)[C@@H](O)[C@H](O)CO` [(+)-galactose] + O, the mass density by setting is: (m1 = 0.2) 1010.68 ± 0.22 kg/m3; (m1 = 0.4) 1023.7 ± 0.28 kg/m3; (m1 = 0.6) 1036.15 ± 0.33 kg/m3; (m1 = 0.8) 1047.98 ± 0.39 kg/m3; (m1 = 1) 1059.4 ± 0.45 kg/m3; (m1 = 1.2) 1070.22 ± 0.5 kg/m3.

Take `O=C[C@@H](O)[C@H](O)[C@H](O)CO` [D-(-)-arabinose] + O: the mass density turned out to be 1008.06 ± 0.2 kg/m3 (m1 = 0.2); 1018.64 ± 0.22 kg/m3 (m1 = 0.4); 1028.67 ± 0.23 kg/m3 (m1 = 0.6); 1038.38 ± 0.24 kg/m3 (m1 = 0.8); 1047.69 ± 0.24 kg/m3 (m1 = 1); 1056.36 ± 0.27 kg/m3 (m1 = 1.2).

On to `O=C[C@H](O)[C@@H](O)[C@H](O)CO` [D-xylose] + O, for which the mass density is 1007.72 ± 0.21 kg/m3 (m1 = 0.2); 1017.95 ± 0.26 kg/m3 (m1 = 0.4); 1027.8 ± 0.3 kg/m3 (m1 = 0.6); 1037.28 ± 0.35 kg/m3 (m1 = 0.8); 1046.38 ± 0.39 kg/m3 (m1 = 1); 1055.19 ± 0.44 kg/m3 (m1 = 1.2).

`[Cl-].[Cs+]` [cesium chloride] + O: the mass density (m1 = 0.015) is listed as 998.969 ± 0.14 kg/m3; the mass density (m1 = 0.03) worked out at 1000.88 ± 0.14 kg/m3; the mass density (m1 = 0.05) worked out at 1003.43 ± 0.14 kg/m3; the mass density (m1 = 0.075) is listed as 1006.61 ± 0.14 kg/m3; the mass density (m1 = 0.1) came to 1009.77 ± 0.15 kg/m3.
